Patent US6972296B2, “Carboxylic acid derivatives that inhibit the binding of integrins to their receptors” (Encysive Pharmaceuticals Inc., priority 1999, dated 2005)

Molecular target: T1, α4β1 integrin (Homo sapiens, UniProt P05556+P13612)
T1 construct: endogenous in cells; host or cells: Ramos cells
Experiment: Adhesion of calcein-labeled Ramos cells to CS1 (fibronectin) peptide conjugated ovalbumin
Format: cell-based
Details: Ramos cell adhesion to CS1 conjugated ovalbumin
Method: A procedure in which a 26-amino acid peptide containing the CS1 sequence of fibronectin with an N-terminal Cys ([…]) was coupled to maleimide activated ovalbumin was used to determine the efficacy of the compounds synthesized. Bovine serum albumin (BSA) and CS1 conjugated ovalbumin were coated onto 96-well polystyrene plates at 0.5 μg/ml in TBS (50 mM TRIS, pH 7.5; 150 mM NaCl) at 4° C. for 16 hours. The plates were washed three times with TBS and blocked with TBS containing 3% BSA at room temperature for 4 hours. Blocked plates were washed three times in binding buffer (TBS; 1 mM MgCl2; 1 mM CaCl2; 1 mM MnCl2) prior to assay. Ramos cells fluorescently labeled with calcein AM were resuspended in binding buffer (10^7 cells/ml) and diluted 1:2 with same buffer with or without compound. 100 μM of compound was added. The cells were added immediately to the wells (2.5×10^5 cells/well) and incubated for 30 minutes at 37° C. Following three washes with binding buffer, adherent cells were lysed and quantitated using a fluorometer. IC50 is defined as the dose required to give 50% inhibition, measured in μM for Tables 2 and 4. The lower the IC50 value and the greater the percentage of inhibition, the more efficient the compound is at prevention of cell adhesion.

[1] = Table 7, dose required to give 50% inhibition
[2] = Table 5, dose required to give 50% inhibition

T1 sequence (P13612 34-1032): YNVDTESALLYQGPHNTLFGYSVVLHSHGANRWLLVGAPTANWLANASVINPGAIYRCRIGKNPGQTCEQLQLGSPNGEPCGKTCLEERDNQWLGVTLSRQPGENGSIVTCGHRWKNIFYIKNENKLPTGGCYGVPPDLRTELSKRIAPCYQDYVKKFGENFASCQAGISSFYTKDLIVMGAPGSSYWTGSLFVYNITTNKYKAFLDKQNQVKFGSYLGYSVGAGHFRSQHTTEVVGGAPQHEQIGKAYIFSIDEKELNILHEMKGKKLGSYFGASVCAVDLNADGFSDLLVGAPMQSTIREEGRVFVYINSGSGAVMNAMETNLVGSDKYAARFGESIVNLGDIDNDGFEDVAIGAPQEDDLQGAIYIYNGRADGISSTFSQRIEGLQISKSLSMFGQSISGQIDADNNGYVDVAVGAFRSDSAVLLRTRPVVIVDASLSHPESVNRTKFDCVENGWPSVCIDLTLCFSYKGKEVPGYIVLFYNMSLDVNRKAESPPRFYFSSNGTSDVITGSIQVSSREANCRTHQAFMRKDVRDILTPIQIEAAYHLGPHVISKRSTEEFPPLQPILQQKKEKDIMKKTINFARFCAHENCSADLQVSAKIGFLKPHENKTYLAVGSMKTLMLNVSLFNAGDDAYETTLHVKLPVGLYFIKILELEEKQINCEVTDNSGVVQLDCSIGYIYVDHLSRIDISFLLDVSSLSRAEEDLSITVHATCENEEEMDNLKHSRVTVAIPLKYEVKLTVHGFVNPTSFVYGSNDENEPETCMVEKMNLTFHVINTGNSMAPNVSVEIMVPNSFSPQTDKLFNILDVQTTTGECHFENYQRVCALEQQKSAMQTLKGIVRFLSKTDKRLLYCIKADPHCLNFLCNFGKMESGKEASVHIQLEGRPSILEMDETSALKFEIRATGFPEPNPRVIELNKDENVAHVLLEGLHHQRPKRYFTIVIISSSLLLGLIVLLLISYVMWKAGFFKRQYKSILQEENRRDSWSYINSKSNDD
T1 sequence (P05556 21-798): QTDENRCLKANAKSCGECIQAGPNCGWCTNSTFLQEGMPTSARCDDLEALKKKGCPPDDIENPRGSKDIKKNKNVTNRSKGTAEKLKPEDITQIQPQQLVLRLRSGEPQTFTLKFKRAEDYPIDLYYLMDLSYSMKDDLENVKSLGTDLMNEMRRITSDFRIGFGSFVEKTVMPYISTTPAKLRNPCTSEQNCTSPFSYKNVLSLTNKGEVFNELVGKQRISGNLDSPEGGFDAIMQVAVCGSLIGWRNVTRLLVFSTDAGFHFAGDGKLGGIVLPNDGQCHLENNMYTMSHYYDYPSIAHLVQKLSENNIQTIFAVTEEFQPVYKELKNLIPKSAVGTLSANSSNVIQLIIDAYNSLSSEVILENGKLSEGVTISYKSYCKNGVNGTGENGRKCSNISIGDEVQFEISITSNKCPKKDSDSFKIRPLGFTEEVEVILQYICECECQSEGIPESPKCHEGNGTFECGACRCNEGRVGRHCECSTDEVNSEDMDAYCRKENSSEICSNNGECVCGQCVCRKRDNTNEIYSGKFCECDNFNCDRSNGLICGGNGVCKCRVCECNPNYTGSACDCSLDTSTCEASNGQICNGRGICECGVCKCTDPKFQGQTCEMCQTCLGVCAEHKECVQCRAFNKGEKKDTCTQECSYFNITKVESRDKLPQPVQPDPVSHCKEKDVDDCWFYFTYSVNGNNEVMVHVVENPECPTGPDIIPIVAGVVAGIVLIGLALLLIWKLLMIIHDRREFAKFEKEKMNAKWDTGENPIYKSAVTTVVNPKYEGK

Structure (SMILES): O=C(O)C[C@H](NC(=O)Nc1c(O)c2c(n(Cc3ccccc3Cl)c1=O)CCC2)c1cccc(F)c1
- IC50 [1]: 0.016 µM

Structure (SMILES): COc1cccc(Cl)c1Cn1ccc(O)c(NC(=O)N[C@@H](CC(=O)O)c2ccc(C)cc2)c1=O [(3S)-3-[({[1-(2-chloro-6-methoxybenzyl)-4-hydroxy-2-oxo-1,2-dihydropyridin-3-yl]amino}carbonyl)amino]-3-(4-methylphenyl)propanoic acid]
- IC50 [2]: 0.003 µM

Structure (SMILES): Cc1ccccc1C[C@H](CC(=O)O)NC(=O)Nc1c(O)ccn(Cc2ccccc2Cl)c1=O
- IC50 [2]: 0.08 µM

Structure (SMILES): Cc1cccc(Cl)c1Cn1c2c(c(O)c(NC(=O)N[C@@H](CC(=O)O)c3cccc(OC(F)F)c3)c1=O)CCC2
- IC50 [1]: 0.003 µM

Structure (SMILES): Cc1ccc([C@H](CC(=O)O)NC(=O)Nc2cccn(Cc3cccc(Cl)c3)c2=O)cc1
- IC50 [2]: 0.5 µM

Structure (SMILES): Cc1ccc([C@H](CC(=O)O)NC(=O)Nc2c(O)c3c(n(Cc4ccccc4Cl)c2=O)CCCCC3)cc1
- IC50 [2]: 0.12 µM

Structure (SMILES): Cc1ccc([C@H](CC(=O)O)NC(=O)Nc2cccn(Cc3ccc(Cl)s3)c2=O)cc1
- IC50 (Table 4, 30 minutes at 37° C.): 1.3 µM

Structure (SMILES): CCOc1cccc([C@H](CC(=O)O)NC(=O)Nc2c(O)ccn(Cc3ccccc3Cl)c2=O)c1 [(3S)-3-[({[1-(2-chlorobenzyl)-4-hydroxy-2-oxo-1,2-dihydropyridin-3-yl]amino}carbonyl)amino]-3-(3-ethoxyphenyl)propanoic acid]
- IC50 [2]: 0.003 µM

Structure (SMILES): Cc1ccc([C@H](CC(=O)O)NC(=O)Nc2cccn(Cc3ccc(Cl)cc3)c2=O)cc1
- IC50 (Table 4, 30 minutes at 37° C.): 2 µM

Structure (SMILES): COc1ccc2cc([C@H](CC(=O)O)NC(=O)Nc3c(O)ccn(Cc4ccccc4Cl)c3=O)ccc2c1
- IC50 (Table 6, 30 minutes at 37° C.): 0.015 µM

Structure (SMILES): Cc1cccc(Cl)c1Cn1c2c(c(O)c(NC(=O)N[C@@H](CC(=O)O)c3cccc(OC4CCC4)c3)c1=O)CCC2
- IC50 [1]: 0.02 µM

Structure (SMILES): CCN(c1cccc([C@H](CC(=O)O)NC(=O)Nc2c(O)c3c(n(Cc4c(C)cccc4Cl)c2=O)CCC3)c1)S(C)(=O)=O [(3S)-3-{[({1-[(2-chloro-6-methylphenyl)methyl]-4-hydroxy-2-oxo-2,5,6,7-tetrahydro-1H-cyclopenta[b]pyridin-3-yl}amino)carbonyl]amino}-3-{3-[ethyl(methylsulfonyl)amino]phenyl}propanoic acid]
- IC50 [1]: 0.001 µM

Structure (SMILES): Cc1ccc([C@H](CC(=O)O)NC(=O)Nc2c(O)ccn(Cc3ccccc3S(=O)(=O)N(C)C)c2=O)cc1
- IC50 [2]: 0.03 µM

Structure (SMILES): COc1ccc([C@H](CC(=O)O)NC(=O)Nc2c(O)c3c(n(Cc4c(C)cccc4Cl)c2=O)CCC3)cc1F
- IC50 [1]: 0.003 µM

Structure (SMILES): Cc1cccc([C@H](CC(=O)O)NC(=O)Nc2c(O)ccn(Cc3ccccc3Cl)c2=O)c1 [(3S)-3-{[({1-[(2-chlorophenyl)methyl]-4-hydroxy-2-oxo-1,2-dihydro-3-pyridinyl}amino)carbonyl]amino}-3-(3-methylphenyl)propanoic acid]
- IC50 (Table 3, 30 minutes at 37° C.): 0.02 µM

Structure (SMILES): CC(=O)Nc1ccc(Br)c(Cn2cccc(NC(=O)N[C@@H](CC(=O)O)c3ccc(C)cc3)c2=O)c1
- IC50 (Table 4, 30 minutes at 37° C.): 0.2 µM

Structure (SMILES): CCOc1cccc(Cl)c1Cn1ccc(O)c(NC(=O)N[C@@H](CC(=O)O)c2cccc(OC(C)C)c2)c1=O [(3S)-3-[({[1-(2-chloro-6-ethoxybenzyl)-4-hydroxy-2-oxo-1,2-dihydropyridin-3-yl]amino}carbonyl)amino]-3-(3-isopropoxyphenyl)propanoic acid]
- IC50 [1]: 0.003 µM

Structure (SMILES): CCOc1cccc([C@H](CC(=O)O)NC(=O)Nc2c(O)ccn(Cc3c(Cl)cccc3OCC)c2=O)c1 [(3S)-3-[({[1-(2-chloro-6-ethoxybenzyl)-4-hydroxy-2-oxo-1,2-dihydropyridin-3-yl]amino}carbonyl)amino]-3-(3-ethoxyphenyl)propanoic acid]
- IC50 (Table 6, 30 minutes at 37° C.): 0.003 µM

Structure (SMILES): CCOc1cccc(Cl)c1Cn1cc(C)c(O)c(NC(=O)N[C@@H](CC(=O)O)c2ccc(C)cc2)c1=O [(3S)-3-[({[1-(2-chloro-6-ethoxybenzyl)-4-hydroxy-5-methyl-2-oxo-1,2-dihydropyridin-3-yl]amino}carbonyl)amino]-3-(4-methylphenyl)propanoic acid]
- IC50 (Table 6, 30 minutes at 37° C.): 0.003 µM

Structure (SMILES): COc1cccc(OC)c1Cn1ccc(O)c(NC(=O)N[C@@H](CC(=O)O)c2ccc(C)cc2)c1=O [(3S)-3-[({[1-(2,6-dimethoxybenzyl)-4-hydroxy-2-oxo-1,2-dihydropyridin-3-yl]amino}carbonyl)amino]-3-(4-methylphenyl)propanoic acid]
- IC50 [2]: 0.01 µM

Structure (SMILES): CCOc1ccc([C@H](CC(=O)O)NC(=O)Nc2c(O)c(C)cn(Cc3c(Cl)cccc3OC)c2=O)cc1OCC [(3S)-3-[({[1-(2-chloro-6-methoxybenzyl)-4-hydroxy-5-methyl-2-oxo-1,2-dihydropyridin-3-yl]amino}carbonyl)amino]-3-(3,4-diethoxyphenyl)propanoic acid]
- IC50 (Table 6, 30 minutes at 37° C.): 0.002 µM

Structure (SMILES): O=C(O)C[C@H](NC(=O)Nc1c(O)ccn(Cc2ccccc2Cl)c1=O)c1cccc(OC(F)(F)C(F)F)c1
- IC50 (Table 6, 30 minutes at 37° C.): 0.015 µM

Structure (SMILES): CCCc1cn(Cc2c(Cl)cccc2OCC)c(=O)c(NC(=O)N[C@@H](CC(=O)O)c2cccc(OC(C)C)c2)c1O
- IC50 [1]: 0.022 µM

Structure (SMILES): COc1cccc(OC)c1-c1ccc([C@H](CC(=O)O)NC(=O)Nc2c(O)c(C)cn(Cc3ccccc3Cl)c2=O)cc1
- IC50 [1]: 0.04 µM

Structure (SMILES): Cc1cccc(Cl)c1Cn1c2c(c(O)c(NC(=O)N[C@@H](CC(=O)O)c3cccc(OC4CC4)c3)c1=O)CCC2
- IC50 [1]: 0.004 µM

Structure (SMILES): COc1c(C)cc([C@H](CC(=O)O)NC(=O)Nc2c(O)c3c(n(Cc4ccccc4Cl)c2=O)CCC3)cc1C
- IC50 [1]: 0.011 µM

Structure (SMILES): CCOc1cc([C@H](CC(=O)O)NC(=O)Nc2c(O)c3c(n(Cc4ccccc4Cl)c2=O)CCC3)ccc1-c1ccccc1
- IC50 [1]: 0.02 µM

Structure (SMILES): Cc1ccc([C@H](CC(=O)O)NC(=O)Nc2c(O)c(C)cn(Cc3c(Cl)cccc3OCC3CCCC3)c2=O)cc1
- IC50 [1]: 0.02 µM

Structure (SMILES): CCOc1cccc([C@H](CC(=O)O)NC(=O)Nc2c(O)c3c(n(Cc4c(OCC)ccc(Cl)c4Cl)c2=O)CCC3)c1
- IC50 [1]: 0.003 µM

Structure (SMILES): Cc1ccc([C@H](CC(=O)O)NC(=O)Nc2c(O)ccn(Cc3ccccc3Br)c2=O)cc1
- IC50 [2]: 0.015 µM

Structure (SMILES): Cc1cn(Cc2ccccc2Cl)c(=O)c(NC(=O)N[C@@H](CC(=O)O)c2cccc3ccn(C)c23)c1O
- IC50 [1]: 0.03 µM

Structure (SMILES): Cc1cn(Cc2ccccc2Cl)c(=O)c(NC(=O)N[C@@H](CC(=O)O)c2ccc3c(ccn3C)c2)c1O
- IC50 (Table 6, 30 minutes at 37° C.): 0.003 µM

Structure (SMILES): COc1cc([C@H](CC(=O)O)NC(=O)Nc2c(O)ccn(Cc3ccccc3Cl)c2=O)cc(OC)c1C [(3S)-3-[({[1-(2-chlorobenzyl)-4-hydroxy-2-oxo-1,2-dihydropyridin-3-yl]amino}carbonyl)amino]-3-(3,5-dimethoxy-4-methylphenyl)propanoic acid]
- IC50 [2]: 0.003 µM

Structure (SMILES): O=C(O)C[C@H](NC(=O)N1CCCCc2ccn(Cc3ccccc3)c(=O)c21)c1ccc2c(c1)OCO2 [(3S)-3-(1,3-benzodioxol-5-yl)-3-({[9-oxo-8-(phenylmethyl)-2,3,4,5,8,9-hexahydro-1H-pyrido[3,4-b]azepin-1-yl]carbonyl}amino)propanoic acid]
- IC50 (Table 3, 30 minutes at 37° C.): 4 µM

Structure (SMILES): CCCNc1ccn(Cc2ccccc2Cl)c(=O)c1NC(=O)N[C@@H](CC(=O)O)c1ccc(C)cc1 [(3S)-3-[({[1-[(2-chlorophenyl)methyl]-2-oxo-4-(propylamino)-1,2-dihydro-3-pyridinyl]amino}carbonyl)amino]-3-(4-methylphenyl)propanoic acid]
- IC50 (Table 3, 30 minutes at 37° C.): 0.01 µM

Structure (SMILES): Cc1ccc([C@H](CC(=O)O)NC(=O)Nc2c(O)ccn(Cc3ccccc3C#N)c2=O)cc1 [(3S)-3-[({[1-(2-cyanobenzyl)-4-hydroxy-2-oxo-1,2-dihydropyridin-3-yl]amino}carbonyl)amino]-3-(4-methylphenyl)propanoic acid]
- IC50 [2]: 0.009 µM

Structure (SMILES): Cc1ccc([C@H](CC(=O)O)NC(=O)Nc2c(O)c(C3CC3)cn(Cc3ccccc3Cl)c2=O)cc1
- IC50 (Table 6, 30 minutes at 37° C.): 0.02 µM
